Columns and labels:
Assay in all cases: Test F preemergence test
quackgrass = format: in vivo, Elytrigia repens; details: scale 0 to 100
Outline: (§1)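 Visual ratings relative to controls, taken after 14 to 21 days in a greenhouse. Test chemicals, formulated in a surfactant-containing non-phytotoxic solvent mixture, were applied preemergence to sown seeds or postemergence to sugarcane plants.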

common purslane = format: in vivo, Portulaca oleracea; details: scale 0 to 100
Outline: as §1

common groundsel = format: in vivo, Senecio vulgaris; details: scale 0 to 100
Outline: as §1

purple nutsedge = format: in vivo, Cyperus rotundus; details: scale 0 to 100
Outline: as §1

annual bluegrass = format: in vivo, Poa annua; details: scale 0 to 100
Outline: as §1

common mallow = format: in vivo, Malva sylvestris; details: scale 0 to 100
Outline: as §1

Virginia dayflower = format: in vivo, Commelina virginica; details: 16 g ai/ha, preemergence; scale 0 to 100
Outline: as §1

guineagrass = format: in vivo, Panicum maximum; details: scale 0 to 100
Outline: as §1

pitted morningglory = format: in vivo, Ipomoea lacunosa; details: scale 0 to 100
Outline: as §1

barnyardgrass = format: in vivo, Echinochloa crus-galli
Outline: as §1

bermudagrass = format: in vivo, Cynodon dactylon; details: scale 0 to 100
Outline: as §1

common chickweed = format: in vivo, Stellaria media; details: scale 0 to 100
Outline: as §1

kochia = format: in vivo, Kochia scoparia; details: scale 0 to 100
Outline: as §1

Canada horseweed = format: in vivo, Conyza canadensis; details: scale 0 to 100
Outline: as §1

dallisgrass = format: in vivo, Paspalum dilatatum; details: scale 0 to 100
Outline: as §1

naked crabgrass = format: in vivo, Digitaria nuda; details: scale 0 to 100
Outline: as §1

prickly sida = format: in vivo, Sida spinosa; details: scale 0 to 100
Outline: as §1

broadleaf signalgrass = format: in vivo, Brachiaria platyphylla; details: scale 0 to 100; for Signalgrass plant response rating: 125 g ai/ha
Outline: as §1

mustard = format: in vivo, Brassica nigra; details: scale 0 to 100
Outline: as §1

[1] = 16 g ai/ha, preemergence, scale 0 to 100 (0 no effect, 100 complete control)
[2] = 62 g ai/ha, Preemergence, scale 0 to 100
[3] = 125 g ai/ha, preemergence, scale 0 to 100
[4] = Preemergence, 31 g ai/ha, scale 0 to 100

Cn1nc(C(F)(F)F)c(C[S+]([O-])c2ccc(F)c[n+]2[O-])c1OCC(F)(F)F (stereo not shown) [Compound 67]
Plant response rating, Quackgrass (quackgrass; 16 g ai/ha, preemergence): 60 | Quackgrass plant response rating (quackgrass; 62 g ai/ha, Preemergence): 85 | Quackgrass plant response rating (quackgrass; 125 g ai/ha, preemergence): 98 | Plant response rating, Quackgrass (quackgrass; Preemergence, 31 g ai/ha): 75 | Plant response rating, Purslane (common purslane; 16 g ai/ha, preemergence): 0 | Purslane plant response rating (common purslane; 62 g ai/ha, Preemergence): 95 | Purslane plant response rating (common purslane; 125 g ai/ha, preemergence): 100 | Plant response rating, Purslane (common purslane; Preemergence, 31 g ai/ha): 0 | Plant response rating, Groundsel (common groundsel; 16 g ai/ha, preemergence): 0 | Groundsel plant response rating (common groundsel; 62 g ai/ha, Preemergence): 80 | Groundsel plant response rating (common groundsel; 125 g ai/ha, preemergence): 98 | Plant response rating, Groundsel (common groundsel; Preemergence, 31 g ai/ha): 25 | Plant response rating, Purple Nutsedge (purple nutsedge; 16 g ai/ha, preemergence): 0 | Purple Nutsedge plant response rating (purple nutsedge; 62 g ai/ha, Preemergence): 60 | Purple Nutsedge plant response rating (purple nutsedge; 125 g ai/ha, preemergence): 95 | Plant response rating, Purple Nutsedge (purple nutsedge; Preemergence, 31 g ai/ha): 30 | Plant response rating, Bluegrass (annual bluegrass; 16 g ai/ha, preemergence): 0 | Bluegrass plant response rating (annual bluegrass; 62 g ai/ha, Preemergence): 80 | Bluegrass plant response rating (annual bluegrass; 125 g ai/ha, preemergence): 100 | Plant response rating, Bluegrass (annual bluegrass; Preemergence, 31 g ai/ha): 0 | Plant response rating, Mallow (common mallow; 16 g ai/ha, preemergence): 0 | Mallow plant response rating (common mallow; 62 g ai/ha, Preemergence): 100 | Mallow plant response rating (common mallow; 125 g ai/ha, preemergence): 100 | Plant response rating, Mallow (common mallow; Preemergence, 31 g ai/ha): 15 | Plant response rating, Dayflower (Virginia dayflower): 50 | Plant response rating, Guineagrass (guineagrass; 16 g ai/ha, preemergence): 0 | Guineagrass plant response rating (guineagrass; 62 g ai/ha, Preemergence): 100 | Guineagrass plant response rating (guineagrass; 125 g ai/ha, preemergence): 100 | Plant response rating, Guineagrass (guineagrass; Preemergence, 31 g ai/ha): 95 | Plant response rating, Morningglory (pitted morningglory; 16 g ai/ha, preemergence): 40 | Morningglory plant response rating (pitted morningglory; 62 g ai/ha, Preemergence): 70 | Morningglory plant response rating (pitted morningglory; 125 g ai/ha, preemergence): 90 | Plant response rating, Morningglory (pitted morningglory; Preemergence, 31 g ai/ha): 70 | Plant response rating, Barnyardgrass (barnyardgrass; [1]): 75 | Barnyardgrass plant response rating (barnyardgrass; [2]): 100 | Barnyardgrass plant response rating (barnyardgrass; [3]): 100 | Plant response rating, Barnyardgrass (barnyardgrass; [4]): 90 | Plant response rating, Bermudagrass (bermudagrass; 16 g ai/ha, preemergence): 20 | Bermudagrass plant response rating (bermudagrass; 62 g ai/ha, Preemergence): 98 | Bermudagrass plant response rating (bermudagrass; 125 g ai/ha, preemergence): 100 | Plant response rating, Bermudagrass (bermudagrass; Preemergence, 31 g ai/ha): 75 | Chickweed plant response rating (common chickweed; 62 g ai/ha, Preemergence): 100 | Chickweed plant response rating (common chickweed; 125 g ai/ha, preemergence): 100 | Plant response rating, Chickweed (common chickweed; Preemergence, 31 g ai/ha): 40 | Plant response rating, Kochia (kochia; 16 g ai/ha, preemergence): 0 | Kochia plant response rating (kochia; 62 g ai/ha, Preemergence): 100 | Kochia plant response rating (kochia; 125 g ai/ha, preemergence): 100 | Plant response rating, Kochia (kochia; Preemergence, 31 g ai/ha): 60 | Plant response rating, Horseweed (Canada horseweed; 16 g ai/ha, preemergence): 0 | Horseweed plant response rating (Canada horseweed; 62 g ai/ha, Preemergence): 100 | Horseweed plant response rating (Canada horseweed; 125 g ai/ha, preemergence): 100 | Plant response rating, Horseweed (Canada horseweed; Preemergence, 31 g ai/ha): 0 | Plant response rating, Dallisgrass (dallisgrass; 16 g ai/ha, preemergence): 0 | Dallisgrass plant response rating (dallisgrass; 62 g ai/ha, Preemergence): 95 | Dallisgrass plant response rating (dallisgrass; 125 g ai/ha, preemergence): 100 | Plant response rating, Dallisgrass (dallisgrass; Preemergence, 31 g ai/ha): 40 | Plant response rating, Crabgrass, Naked (naked crabgrass; 16 g ai/ha, preemergence): 60 | Crabgrass, Naked plant response rating (naked crabgrass; 62 g ai/ha, Preemergence): 100 | Crabgrass, Naked plant response rating (naked crabgrass; 125 g ai/ha, preemergence): 100 | Plant response rating, Crabgrass, Naked (naked crabgrass; Preemergence, 31 g ai/ha): 70 | Plant response rating, Prickly Sida (prickly sida; 16 g ai/ha, preemergence): 0 | Prickly Sida plant response rating (prickly sida; 62 g ai/ha, Preemergence): 90 | Prickly Sida plant response rating (prickly sida; 125 g ai/ha, preemergence): 98 | Plant response rating, Prickly Sida (prickly sida; Preemergence, 31 g ai/ha): 65 | Plant response rating, Signalgrass (broadleaf signalgrass; 16 g ai/ha, preemergence): 0 | Signalgrass plant response rating (broadleaf signalgrass; preemergence): 98 | Plant response rating, Signalgrass (broadleaf signalgrass; Preemergence, 62 g ai/ha): 90 | Plant response rating, Signalgrass (broadleaf signalgrass; Preemergence, 31 g ai/ha): 30 | Plant response rating, Black Mustard (mustard; 16 g ai/ha, preemergence): 0 | Black Mustard plant response rating (mustard; 62 g ai/ha, Preemergence): 100 | Black Mustard plant response rating (mustard; 125 g ai/ha, preemergence): 100 | Plant response rating, Black Mustard (mustard; Preemergence, 31 g ai/ha): 75

Cn1nc(C(F)(F)F)c(C[S+]([O-])c2ccc(Cl)c[n+]2[O-])c1OCC(F)(F)F (racemic) [Compound 62]
Plant response rating, Quackgrass (quackgrass; 16 g ai/ha, preemergence): 40 | Quackgrass plant response rating (quackgrass; 62 g ai/ha, Preemergence): 75 | Quackgrass plant response rating (quackgrass; 125 g ai/ha, preemergence): 98 | Plant response rating, Quackgrass (quackgrass; Preemergence, 31 g ai/ha): 75 | Plant response rating, Purslane (common purslane; 16 g ai/ha, preemergence): 15 | Purslane plant response rating (common purslane; 62 g ai/ha, Preemergence): 60 | Purslane plant response rating (common purslane; 125 g ai/ha, preemergence): 75 | Plant response rating, Purslane (common purslane; Preemergence, 31 g ai/ha): 40 | Plant response rating, Groundsel (common groundsel; 16 g ai/ha, preemergence): 0 | Groundsel plant response rating (common groundsel; 62 g ai/ha, Preemergence): 80 | Groundsel plant response rating (common groundsel; 125 g ai/ha, preemergence): 90 | Plant response rating, Groundsel (common groundsel; Preemergence, 31 g ai/ha): 70 | Plant response rating, Purple Nutsedge (purple nutsedge; 16 g ai/ha, preemergence): 0 | Purple Nutsedge plant response rating (purple nutsedge; 62 g ai/ha, Preemergence): 65 | Purple Nutsedge plant response rating (purple nutsedge; 125 g ai/ha, preemergence): 75 | Plant response rating, Purple Nutsedge (purple nutsedge; Preemergence, 31 g ai/ha): 35 | Plant response rating, Bluegrass (annual bluegrass; 16 g ai/ha, preemergence): 20 | Bluegrass plant response rating (annual bluegrass; 62 g ai/ha, Preemergence): 80 | Bluegrass plant response rating (annual bluegrass; 125 g ai/ha, preemergence): 100 | Plant response rating, Bluegrass (annual bluegrass; Preemergence, 31 g ai/ha): 70 | Plant response rating, Mallow (common mallow; 16 g ai/ha, preemergence): 0 | Mallow plant response rating (common mallow; 62 g ai/ha, Preemergence): 98 | Mallow plant response rating (common mallow; 125 g ai/ha, preemergence): 100 | Plant response rating, Mallow (common mallow; Preemergence, 31 g ai/ha): 80 | Plant response rating, Dayflower (Virginia dayflower): 0 | Plant response rating, Guineagrass (guineagrass; 16 g ai/ha, preemergence): 70 | Guineagrass plant response rating (guineagrass; 62 g ai/ha, Preemergence): 100 | Guineagrass plant response rating (guineagrass; 125 g ai/ha, preemergence): 100 | Plant response rating, Guineagrass (guineagrass; Preemergence, 31 g ai/ha): 80 | Plant response rating, Morningglory (pitted morningglory; 16 g ai/ha, preemergence): 0 | Morningglory plant response rating (pitted morningglory; 62 g ai/ha, Preemergence): 75 | Morningglory plant response rating (pitted morningglory; 125 g ai/ha, preemergence): 100 | Plant response rating, Morningglory (pitted morningglory; Preemergence, 31 g ai/ha): 75 | Plant response rating, Barnyardgrass (barnyardgrass; [1]): 30 | Barnyardgrass plant response rating (barnyardgrass; [2]): 100 | Barnyardgrass plant response rating (barnyardgrass; [3]): 100 | Plant response rating, Barnyardgrass (barnyardgrass; [4]): 75 | Plant response rating, Bermudagrass (bermudagrass; 16 g ai/ha, preemergence): 20 | Bermudagrass plant response rating (bermudagrass; 62 g ai/ha, Preemergence): 75 | Bermudagrass plant response rating (bermudagrass; 125 g ai/ha, preemergence): 100 | Plant response rating, Bermudagrass (bermudagrass; Preemergence, 31 g ai/ha): 20 | Plant response rating, Chickweed (common chickweed; 16 g ai/ha, preemergence): 100 | Chickweed plant response rating (common chickweed; 62 g ai/ha, Preemergence): 100 | Chickweed plant response rating (common chickweed; 125 g ai/ha, preemergence): 100 | Plant response rating, Chickweed (common chickweed; Preemergence, 31 g ai/ha): 100 | Plant response rating, Kochia (kochia; 16 g ai/ha, preemergence): 0 | Kochia plant response rating (kochia; 62 g ai/ha, Preemergence): 15 | Kochia plant response rating (kochia; 125 g ai/ha, preemergence): 100 | Plant response rating, Kochia (kochia; Preemergence, 31 g ai/ha): 0 | Plant response rating, Horseweed (Canada horseweed; 16 g ai/ha, preemergence): 0 | Horseweed plant response rating (Canada horseweed; 62 g ai/ha, Preemergence): 100 | Horseweed plant response rating (Canada horseweed; 125 g ai/ha, preemergence): 100 | Plant response rating, Horseweed (Canada horseweed; Preemergence, 31 g ai/ha): 100 | Plant response rating, Dallisgrass (dallisgrass; 16 g ai/ha, preemergence): 0 | Dallisgrass plant response rating (dallisgrass; 62 g ai/ha, Preemergence): 98 | Dallisgrass plant response rating (dallisgrass; 125 g ai/ha, preemergence): 98 | Plant response rating, Dallisgrass (dallisgrass; Preemergence, 31 g ai/ha): 60 | Plant response rating, Crabgrass, Naked (naked crabgrass; 16 g ai/ha, preemergence): 90 | Crabgrass, Naked plant response rating (naked crabgrass; 62 g ai/ha, Preemergence): 100 | Crabgrass, Naked plant response rating (naked crabgrass; 125 g ai/ha, preemergence): 100 | Plant response rating, Crabgrass, Naked (naked crabgrass; Preemergence, 31 g ai/ha): 90 | Plant response rating, Prickly Sida (prickly sida; 16 g ai/ha, preemergence): 15 | Prickly Sida plant response rating (prickly sida; 62 g ai/ha, Preemergence): 75 | Prickly Sida plant response rating (prickly sida; 125 g ai/ha, preemergence): 95 | Plant response rating, Prickly Sida (prickly sida; Preemergence, 31 g ai/ha): 65 | Plant response rating, Signalgrass (broadleaf signalgrass; 16 g ai/ha, preemergence): 40 | Signalgrass plant response rating (broadleaf signalgrass; preemergence): 95 | Plant response rating, Signalgrass (broadleaf signalgrass; Preemergence, 62 g ai/ha): 75 | Plant response rating, Signalgrass (broadleaf signalgrass; Preemergence, 31 g ai/ha): 40 | Plant response rating, Black Mustard (mustard; 16 g ai/ha, preemergence): 20 | Black Mustard plant response rating (mustard; 62 g ai/ha, Preemergence): 90 | Black Mustard plant response rating (mustard; 125 g ai/ha, preemergence): 98 | Plant response rating, Black Mustard (mustard; Preemergence, 31 g ai/ha): 0
